Experimental data: patent US20260048047A1, “SMALL-MOLECULE ACTIVATORS OF MYCOBACTERIUM TUBERCULOSIS ADENYLYL CYCLASE” (priority 2022, published 2026)

system: M. tuberculosis; assay: Extracellular activity against M. tuberculosis in cholesterol media (Alamar Blue reduction assay); assay type: cell-based, Mycobacterium tuberculosis; details: Mycobacterium tuberculosis, 240 h, 7H12-Cholesterol media, 10 days; read-out: Cholesterol broth: alamar blue--EC50

SMILES	EC50
Cc1nonc1CC(=O)N1CCC(c2nc(-c3ccc(F)cc3F)no2)CC1 [Compound 122, 1-(4-(3-(2,4-difluorophenyl)-1,2,4-oxadiazol-5-yl)piperidin-1-yl)-2-(4-methyl-1,2,5-oxadiazol-3-yl)ethan-1-one]	390 nM
Cc1noc(CC(=O)N2CC3CC2CC3c2nc(C3CCC(F)(F)CC3)no2)n1 (stereo not shown) [Compound 191, 1-(5-(3-(4,4-difluorocyclohexyl)-1,2,4-oxadiazol-5-yl)-2-azabicyclo[2.2.1]heptan-2-yl)-2-(3-methyl-1,2,4-oxadiazol-5-yl)ethan-1-one]	> 10000 nM
Cc1nonc1CC(=O)N1CCC(c2nc(-c3ccc(F)cc3Cl)no2)CC1 [Compound 121, 1-(4-(3-(2-chloro-4-fluorophenyl)-1,2,4-oxadiazol-5-yl)piperidin-1-yl)-2-(4-methyl-1,2,5-oxadiazol-3-yl)ethan-1-one]	380 nM
Cc1nonc1CC(=O)N1CCC(c2cnc(-c3ccc(F)cc3)nc2)CC1 [Compound 252, 1-(4-(2-(4-fluorophenyl)pyrimidin-5-yl)piperidin-1-yl)-2-(4-methyl-1,2,5-oxadiazol-3-yl)ethan-1-one]	2910 nM
Cc1nonc1CC(=O)N1CCC(c2nc(C3CCC(C(F)(F)F)CC3)no2)CC1 (stereo not shown) [Compound 100, 2-(4-methyl-1,2,5-oxadiazol-3-yl)-1-(4-(3-(4-(trifluoromethyl)cyclohexyl)-1,2,4-oxadiazol-5-yl)piperidin-1-yl)ethan-1-one]	688 nM
Cc1nonc1CC(=O)N1CCC(c2noc(C3CCC4(CC3)CC4)n2)CC1 [Compound 69, 2-(4-methyl-1,2,5-oxadiazol-3-yl)-1-(4-(5-(spiro[2.5]octan-6-yl)-1,2,4-oxadiazol-3-yl)piperidin-1-yl)ethan-1-one]	> 25000 nM
Cc1nonc1CC(=O)N1CCC(O)(c2nc(C3CCC(F)(F)CC3)no2)CC1 [Compound 111, 1-(4-(3-(4,4-difluorocyclohexyl)-1,2,4-oxadiazol-5-yl)-4-hydroxypiperidin-1-yl)-2-(4-methyl-1,2,5-oxadiazol-3-yl)ethan-1-one]	> 10000 nM
Cc1nccnc1CC(=O)N1CCC(c2nc(C3CCCCC3)no2)CC1 [Compound 13, 1-(4-(3-cyclohexyl-1,2,4-oxadiazol-5-yl)piperidin-1-yl)-2-(3-methylpyrazin-2-yl)ethan-1-one]	> 25000 nM
Cn1ncnc1CC(=O)N1CCC(c2nc(-c3ccc(F)cc3Cl)no2)CC1 [Compound 179, 1-(4-(3-(2-chloro-4-fluorophenyl)-1,2,4-oxadiazol-5-yl)piperidin-1-yl)-2-(1-methyl-1H-1,2,4-triazol-5-yl)ethan-1-one]	1970 nM
Cn1ncnc1CC(=O)N1CCC(c2nc(C3CC4CCC3C4)no2)CC1 (stereo not shown) [Compound 157, 1-(4-(3-(bicyclo[2.2.1]heptan-2-yl)-1,2,4-oxadiazol-5-yl)piperidin-1-yl)-2-(1-methyl-1H-1,2,4-triazol-5-yl)ethan-1-one]	1860 nM
Cc1nonc1CC(=O)N1CCC(c2nc(-c3ncc(F)cn3)no2)CC1 [Compound 148, 1-(4-(3-(5-fluoropyrimidin-2-yl)-1,2,4-oxadiazol-5-yl)piperidin-1-yl)-2-(4-methyl-1,2,5-oxadiazol-3-yl)ethan-1-one]	> 10000 nM
Cc1noc(CC(=O)N2CCC3(CC2)CC3c2nc(-c3ccc(F)cc3)no2)n1 (stereo not shown) [Compound 238, 1-(1-(3-(4-fluorophenyl)-1,2,4-oxadiazol-5-yl)-6-azaspiro[2.5]octan-6-yl)-2-(3-methyl-1,2,4-oxadiazol-5-yl)ethan-1-one]	> 10000 nM
Cn1ncnc1CC(=O)N1C[C@H]2C[C@@H](C1)[C@H]2c1nc(-c2ccc(Cl)c(F)c2)no1 [Compound 222, 1-((1R,5S,6s)-6-(3-(4-chloro-3-fluorophenyl)-1,2,4-oxadiazol-5-yl)-3-azabicyclo[3.1.1]heptan-3-yl)-2-(1-methyl-1H-1,2,4-triazol-5-yl)ethan-1-one]	> 10000 nM
Cc1nonc1CC(=O)N1CCC(c2nc(-c3cccc(OC(F)(F)F)c3)no2)CC1 [Compound 103, 2-(4-methyl-1,2,5-oxadiazol-3-yl)-1-(4-(3-(3-(trifluoromethoxy)phenyl)-1,2,4-oxadiazol-5-yl)piperidin-1-yl)ethan-1-one]	383 nM
Cc1nonc1CC(=O)N1CCCC(n2cc(C(=O)N3CCOCC3)nn2)C1 (stereo not shown) [Compound 244, 2-(4-methyl-1,2,5-oxadiazol-3-yl)-1-(3-(4-(morpholine-4-carbonyl)-1H-1,2,3-triazol-1-yl)piperidin-1-yl)ethan-1-one]	> 10000 nM
Cn1ncnc1CC(=O)N1CCC(n2nnc(-c3ccc(Cl)c(Cl)c3)n2)CC1 [Compound 165, 1-(4-(5-(3,4-dichlorophenyl)-2H-tetrazol-2-yl)piperidin-1-yl)-2-(1-methyl-1H-1,2,4-triazol-5-yl)ethan-1-one]	100 nM
Cc1nonc1CC(=O)N1CCC2(CC1)CC(c1nc(-c3ccc(F)c(F)c3)no1)C2 [Compound 232, 1-(2-(3-(3,4-difluorophenyl)-1,2,4-oxadiazol-5-yl)-7-azaspiro[3.5]nonan-7-yl)-2-(4-methyl-1,2,5-oxadiazol-3-yl)ethan-1-one]	257 nM
Cc1nonc1CC(=O)N1CCC(c2nc(C3CCOCC3)no2)CC1 [Compound 76, 2-(4-methyl-1,2,5-oxadiazol-3-yl)-1-(4-(3-(tetrahydro-2H-pyran-4-yl)-1,2,4-oxadiazol-5-yl)piperidin-1-yl)ethan-1-one]	> 10000 nM
Cc1noc(CC(=O)N2CCC(c3nc(C4CCC5(CC4)OCCO5)no3)CC2)n1 [Compound 19, 1-(4-(3-(1,4-dioxaspiro[4.5]decan-8-yl)-1,2,4-oxadiazol-5-yl)piperidin-1-yl)-2-(3-methyl-1,2,4-oxadiazol-5-yl)ethan-1-one]	> 10000 nM
Cc1nonc1CC(=O)N1CCC(C)(c2nc(-c3ccc(F)cc3)no2)CC1 [Compound 138, 1-(4-(3-(4-fluorophenyl)-1,2,4-oxadiazol-5-yl)-4-methylpiperidin-1-yl)-2-(4-methyl-1,2,5-oxadiazol-3-yl)ethan-1-one]	1470 nM
Cc1nonc1CC(=O)N1CCC(c2nc(C3CCCC(F)(F)C3)no2)CC1 (stereo not shown) [Compound 112, 1-(4-(3-(3,3-difluorocyclohexyl)-1,2,4-oxadiazol-5-yl)piperidin-1-yl)-2-(4-methyl-1,2,5-oxadiazol-3-yl)ethan-1-one]	2670 nM
Cc1nnnn1CC(=O)N1CCC(c2nc(-c3ccc(Cl)c(F)c3)no2)CC1 [Compound 17, 1-(4-(3-(4-chloro-3-fluorophenyl)-1,2,4-oxadiazol-5-yl)piperidin-1-yl)-2-(5-methyl-1H-tetrazol-1-yl)ethan-1-one]	160 nM
Cc1noc(CC(=O)N2CCC(c3nc(-c4ccc(Cl)c(OC(F)(F)F)c4)no3)CC2)n1 [Compound 38]	1050 nM
Cc1noc(CC(=O)N2CCC(c3nc(-c4ccc(Cl)cc4Cl)no3)CC2)n1 [Compound 32, 1-(4-(3-(2,4-dichlorophenyl)-1,2,4-oxadiazol-5-yl)piperidin-1-yl)-2-(3-methyl-1,2,4-oxadiazol-5-yl)ethan-1-one]	718 nM
Cc1nonc1CC(=O)N1CCC(n2cc(C(=O)NCCO)nn2)CC1 [Compound 150, N-(2-hydroxyethyl)-1-(1-(2-(4-methyl-1,2,5-oxadiazol-3-yl)acetyl)piperidin-4-yl)-1H-1,2,3-triazole-4-carboxamide]	> 10000 nM
